In general, pKi refers to the negative decadic logarithm of the Ki, by convention in mol/L. As a reminder, the pIC50 is −log10 of the IC50, conventionally taken in molar units. A higher pIC50 goes with a small IC50.

Results on 1 compound are retold here after paper PMC6762200, “Discovery of novel West Nile Virus protease inhibitor based on isobenzonafuranone and triazolic derivatives of eugenol and indan-1,3-dione scaffolds” (PLoS ONE, 2019).

pIC50, pKi: −log10 of the molar value.

Test [1] concerns the target T1, WNV NS2B-NS3 protease (NS2B-NS3pro) (West Nile virus strain NY-99, UniProt Q9Q6P4).
T1 construct: gene GP1; cut from WNV genome polyprotein; with Serine protease subunit NS2B (cofactor region)
In words: fluorogenic protease assay, pERTKR-AMC, nonlinear fit in competitive mode. It is filed as biochemical.

The target of test [2] is T1, WNV NS2B-NS3 protease (NS2B-NS3pro). Put plainly: fluorogenic protease assay, pERTKR-AMC, four-parameter fit, […] concentrations. It is filed as biochemical.

T1 sequence (Q9Q6P4 1423-1469): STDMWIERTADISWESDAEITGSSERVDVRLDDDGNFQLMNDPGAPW
T1 sequence (Q9Q6P4 1506-1689): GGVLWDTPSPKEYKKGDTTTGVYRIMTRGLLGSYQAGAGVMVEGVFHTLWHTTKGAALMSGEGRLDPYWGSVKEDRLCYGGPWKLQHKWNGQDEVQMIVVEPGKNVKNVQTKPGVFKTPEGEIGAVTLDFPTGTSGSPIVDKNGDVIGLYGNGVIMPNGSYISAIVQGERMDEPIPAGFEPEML

The compound `C=CCc1ccc(OCc2cn(Cc3ccccc3Br)nn2)c(OC)c1` [compound 35, 4-((4-allyl-2-methoxyphenoxy)methyl)-1-(2-bromobenzyl)-1H-1,2,3-triazole] gave a negative-log Ki (pKi) in test [1] of 5.51. In test [2], this compound showed a pIC50 of 5.16.
